Results published in ChEMBL document CHEMBL3639070, “19-nor-steroid derivatives with a 15Œ±,16Œ±-methylene group and a saturated 17,17-spirolactone ring, use thereof, and medicaments containing said derivatives” (2015).

Biological target: T1, Progesterone receptor (Homo sapiens, UniProt P06401)
T1 sequence (P06401 whole entry): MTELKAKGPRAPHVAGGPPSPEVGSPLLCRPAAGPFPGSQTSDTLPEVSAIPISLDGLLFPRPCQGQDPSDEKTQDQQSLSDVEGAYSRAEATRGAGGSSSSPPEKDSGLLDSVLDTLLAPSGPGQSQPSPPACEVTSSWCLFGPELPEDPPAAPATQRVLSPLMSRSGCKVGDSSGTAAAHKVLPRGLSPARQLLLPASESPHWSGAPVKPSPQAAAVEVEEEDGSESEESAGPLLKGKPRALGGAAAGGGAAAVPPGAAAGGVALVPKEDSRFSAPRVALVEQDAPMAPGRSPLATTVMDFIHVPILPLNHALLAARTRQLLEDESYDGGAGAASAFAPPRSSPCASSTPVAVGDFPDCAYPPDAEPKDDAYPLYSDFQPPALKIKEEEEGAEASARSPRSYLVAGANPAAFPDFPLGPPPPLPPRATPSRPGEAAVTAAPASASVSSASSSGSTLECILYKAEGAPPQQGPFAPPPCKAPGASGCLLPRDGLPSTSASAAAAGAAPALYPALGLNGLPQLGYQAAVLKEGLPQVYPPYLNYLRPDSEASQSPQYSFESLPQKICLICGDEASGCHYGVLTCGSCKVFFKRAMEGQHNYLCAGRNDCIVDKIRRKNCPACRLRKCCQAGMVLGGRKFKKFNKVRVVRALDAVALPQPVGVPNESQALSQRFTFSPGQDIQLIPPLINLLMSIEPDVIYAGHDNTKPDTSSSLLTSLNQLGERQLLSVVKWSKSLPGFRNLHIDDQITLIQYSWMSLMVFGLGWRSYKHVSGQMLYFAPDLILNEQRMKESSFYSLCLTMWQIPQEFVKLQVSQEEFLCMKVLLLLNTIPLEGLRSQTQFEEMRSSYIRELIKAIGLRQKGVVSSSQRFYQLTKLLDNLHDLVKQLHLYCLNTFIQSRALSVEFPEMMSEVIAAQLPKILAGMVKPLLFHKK
Assay: Binding Assay: Using cytosol from progesterone receptor-expressing insect cells (Hi5), competitive binding to the progesterone receptor was determined from the ability to displace 3H-progesterone as reference substance from the receptor.

C[C@]12CCC3C4CCC(=O)C=C4[C@@H]4C[C@@H]4C3C1C1CC1[C@@]21CCC(=O)O1 (stereo partly specified)
IC50: 16 nM
